Results as given in paper PMC11968506, “Toxicokinetics and analytical toxicology of the phenmetrazine-derived new psychoactive substance 3,4-methylenedioxyphenmetrazine studied by means of in vitro systems” (Archives of Toxicology, 2025).

Legend:
CYP1A2 = target: T1, CYP1A2 (Homo sapiens, UniProt P05177); assay: CYP inhibition cocktail assay in pHLM, CYP1A2 (phenacetin)
T1 sequence (P05177 1-516): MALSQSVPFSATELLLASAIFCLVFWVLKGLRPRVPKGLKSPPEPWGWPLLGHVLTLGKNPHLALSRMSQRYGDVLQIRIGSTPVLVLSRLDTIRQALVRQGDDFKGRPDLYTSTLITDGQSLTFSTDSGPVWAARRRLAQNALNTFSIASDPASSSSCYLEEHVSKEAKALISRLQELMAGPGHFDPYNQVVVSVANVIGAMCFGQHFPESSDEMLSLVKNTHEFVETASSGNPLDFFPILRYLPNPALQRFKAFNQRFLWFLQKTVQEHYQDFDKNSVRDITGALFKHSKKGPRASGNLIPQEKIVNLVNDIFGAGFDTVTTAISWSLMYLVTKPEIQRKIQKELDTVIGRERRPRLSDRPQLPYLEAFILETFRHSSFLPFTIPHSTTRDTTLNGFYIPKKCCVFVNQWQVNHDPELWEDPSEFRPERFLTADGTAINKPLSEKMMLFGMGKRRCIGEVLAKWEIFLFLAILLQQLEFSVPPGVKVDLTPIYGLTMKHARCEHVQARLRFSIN
Experimental: A modified dual-cocktail based method (Dinger et al. [2014b]) was used. Substrate cocktail A consisted of 8.9 µM dextromethorphan (CYP2D6), 86 µM testosterone (CYP3A4), 3.5 µM diclofenac (CYP2C9), and 12 µM phenacetin (CYP1A2). Substrate cocktail B included 30 µM bupropion (CYP2B6), 2 µM amodiaquine (CYP2C8) and 21 µM omeprazole (CYP2C19). Substrate concentrations were near their respective Michaelis–Menten constant (Km) values (Dinger et al. [2014a]) and all concentrations are final. Enzyme inhibition was investigated using a positive control, a test group, a control group, an interference group, and a negative control. In the test group, specific inhibitors were replaced by MDPM (20 µM). Instead of inhibitors, phosphate buffer was used in the control group. Enzymes were replaced with phosphate buffer in the negative control group. The interference group was incubated like the control group, but the reaction was stopped with 20 µM MDPM in acetonitrile, also containing 2.5 µM trimipramine-d3. All groups were incubated with a NADPH-regenerating system, consisting of 5 mM isocitrate, 2 U/mL isocitrate dehydrogenase, 5 mM Mg^2+, and 1.2 mM NADP^+. Further, substrate cocktail A or B, 90 mM phosphate buffer (pH 7.4), and 200 U/mL superoxide dismutase were added to each group. […] All groups were preincubated for 10 min at 37 °C. […] Enzyme inhibition was evaluated by metabolite formation. […]

CYP2B6 = target: T2, CYP2B6 (Homo sapiens, UniProt P20813); assay: CYP inhibition cocktail assay in pHLM, CYP2B6 (bupropion); details: inhibitor 20 µM
T2 sequence (P20813 1-491): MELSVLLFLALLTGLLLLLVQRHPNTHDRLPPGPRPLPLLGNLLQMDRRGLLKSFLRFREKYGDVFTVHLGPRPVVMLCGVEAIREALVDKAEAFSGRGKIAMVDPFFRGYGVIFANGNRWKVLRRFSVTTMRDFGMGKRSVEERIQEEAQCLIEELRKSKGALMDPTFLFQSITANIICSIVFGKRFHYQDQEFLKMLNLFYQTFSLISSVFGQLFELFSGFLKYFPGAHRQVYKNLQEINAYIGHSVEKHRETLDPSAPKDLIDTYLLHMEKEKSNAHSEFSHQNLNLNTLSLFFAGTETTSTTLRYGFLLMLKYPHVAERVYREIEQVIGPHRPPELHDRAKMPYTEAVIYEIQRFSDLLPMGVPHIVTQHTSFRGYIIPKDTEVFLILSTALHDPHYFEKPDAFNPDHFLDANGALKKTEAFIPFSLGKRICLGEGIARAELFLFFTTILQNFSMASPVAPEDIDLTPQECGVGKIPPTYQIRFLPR
Experimental: (§1) A modified dual-cocktail based method (Dinger et al. [2014b]) was used. Substrate cocktail A consisted of 8.9 µM dextromethorphan (CYP2D6), 86 µM testosterone (CYP3A4), 3.5 µM diclofenac (CYP2C9), and 12 µM phenacetin (CYP1A2). Substrate cocktail B included 30 µM bupropion (CYP2B6), 2 µM amodiaquine (CYP2C8) and 21 µM omeprazole (CYP2C19). Substrate concentrations were near their respective Michaelis–Menten constant (Km) values (Dinger et al. [2014a]) and all concentrations are final. Enzyme inhibition was investigated using a positive control, a test group, a control group, an interference group, and a negative control. In the test group, specific inhibitors were replaced by MDPM (20 µM). Instead of inhibitors, phosphate buffer was used in the control group. Enzymes were replaced with phosphate buffer in the negative control group. The interference group was incubated like the control group, but the reaction was stopped with 20 µM MDPM in acetonitrile, also containing 2.5 µM trimipramine-d3. All groups were incubated with a NADPH-regenerating system, consisting of 5 mM isocitrate, 2 U/mL isocitrate dehydrogenase, 5 mM Mg^2+, and 1.2 mM NADP^+. Further, substrate cocktail A or B, 90 mM phosphate buffer (pH 7.4), and 200 U/mL superoxide dismutase were added to each group. […] All groups were preincubated for 10 min at 37 °C. Then, pHLM (0.4 mg microsomal protein/mL) was added to each group except the negative control. Incubations were done for 15 min at 37 °C. Therefore, 50 µL of acetonitrile (− 20 °C) containing 2.5 µM trimipramine-d3 as internal standard was added. Incubations were done in triplicates and organic solvent in the incubation mixture was below 1% (Chauret et al. [1998]). Afterwards the samples were vortexed and centrifuged for 2 min at 18,407×g. 70 µL of the supernatant were transferred to autosampler vials and 10 µL were injected onto the LC-HRMS/MS system. Enzyme inhibition was evaluated by metabolite formation. […] The following settings were used: unpaired; one-tailed; significance level, 0.05; confidence intervals, 99%.

CYP2C8 = target: T3, CYP2C8 (Homo sapiens, UniProt P10632); assay: CYP inhibition cocktail assay in pHLM, CYP2C8 (amodiaquine); details: inhibitor 20 µM
T3 sequence (P10632 1-490): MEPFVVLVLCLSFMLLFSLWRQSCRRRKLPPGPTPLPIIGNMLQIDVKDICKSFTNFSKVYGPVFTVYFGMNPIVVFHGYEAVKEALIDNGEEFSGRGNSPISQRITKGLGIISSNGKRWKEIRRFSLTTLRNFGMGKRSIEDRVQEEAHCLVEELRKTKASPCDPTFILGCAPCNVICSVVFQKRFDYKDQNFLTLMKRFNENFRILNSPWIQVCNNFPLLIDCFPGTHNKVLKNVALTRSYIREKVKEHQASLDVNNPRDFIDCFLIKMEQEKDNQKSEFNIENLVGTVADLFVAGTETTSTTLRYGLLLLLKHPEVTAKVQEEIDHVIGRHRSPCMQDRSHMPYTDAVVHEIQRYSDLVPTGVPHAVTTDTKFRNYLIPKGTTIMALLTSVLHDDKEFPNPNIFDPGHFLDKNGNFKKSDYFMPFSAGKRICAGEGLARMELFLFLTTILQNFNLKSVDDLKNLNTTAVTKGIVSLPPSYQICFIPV
Experimental: as §1

CYP2C19 = CYP2C19 (Homo sapiens, UniProt P33261); assay: CYP inhibition cocktail assay in pHLM, CYP2C19 (omeprazole); details: inhibitor 20 µM
Chain of CYP2C19 (P33261 whole entry): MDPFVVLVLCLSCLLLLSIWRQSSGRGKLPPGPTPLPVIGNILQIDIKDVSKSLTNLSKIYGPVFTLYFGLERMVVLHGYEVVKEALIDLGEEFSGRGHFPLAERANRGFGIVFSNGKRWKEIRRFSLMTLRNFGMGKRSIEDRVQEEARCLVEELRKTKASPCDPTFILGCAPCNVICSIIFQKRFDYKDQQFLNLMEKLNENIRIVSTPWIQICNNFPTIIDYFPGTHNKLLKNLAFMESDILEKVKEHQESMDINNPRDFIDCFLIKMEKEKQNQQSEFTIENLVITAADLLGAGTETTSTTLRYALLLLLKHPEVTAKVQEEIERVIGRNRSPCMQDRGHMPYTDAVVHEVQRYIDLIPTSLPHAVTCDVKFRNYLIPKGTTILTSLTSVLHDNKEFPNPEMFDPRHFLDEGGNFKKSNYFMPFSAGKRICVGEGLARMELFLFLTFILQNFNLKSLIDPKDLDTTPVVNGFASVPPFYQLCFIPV
Experimental: as §1

**Q.** How did the inhibition at 15 min, 20 µM (CYP1A2; human, pooled human liver microsomes (pHLM), pH 7.4, probe phenacetin (12 µM)) turn out when CC1NCCOC1c1ccc2c(c1)OCO2 (centres unmarked) [MDPM, 2-(1,3-benzodioxol-5-yl)-3-methylmorpholine] was run?
**A.** The inhibition at 15 min, 20 µM was 39%.

**Q.** And the CYP1A2 metabolite formation (CYP1A2; inhibitor 20 µM, phenacetin 12 µM, pHLM 0.4 mg/mL, 15 min, control without inhibitor = 100%)?
**A.** Its CYP1A2 metabolite formation is 61%.

**Q.** What about the CYP2B6 metabolite formation (CYP2B6; bupropion 30 µM, pHLM 0.4 mg/mL, 15 min, control without inhibitor = 100%) of the same compound?
**A.** The CYP2B6 metabolite formation was 113%.

**Q.** What about the “inhibition of CYP2B6” value (CYP2B6; bupropion, pHLM, t-test versus control) of the same compound?
**A.** The value was “no significant inhibition”.

**Q.** What about the CYP2C8 metabolite formation (CYP2C8; amodiaquine 2 µM, pHLM 0.4 mg/mL, 15 min, control without inhibitor = 100%) of the same compound?
**A.** Its CYP2C8 metabolite formation is 105%.

**Q.** And the “inhibition of CYP2C8” value (CYP2C8; amodiaquine, pHLM, t-test versus control)?
**A.** The value was “no significant inhibition”.

**Q.** What about the CYP2C19 metabolite formation (CYP2C19; omeprazole 21 µM, pHLM 0.4 mg/mL, 15 min, control without inhibitor = 100%) of the same compound?
**A.** The CYP2C19 metabolite formation was 86%.

**Q.** And the “inhibition of CYP2C19” value (CYP2C19; omeprazole, pHLM, t-test versus control)?
**A.** Its value is “no significant inhibition”.
